In ChEMBL document CHEMBL3124847, “Membrane damaging activity of a maslinic acid analog” (Eur J Med Chem, 2014) one finds IC50, Activity and solubility data, which are given here for three molecules.

≈ marks a conversion by molar mass, not a printed value. Calls of active or inactive are those of the source. No cut-off for these calls is given here.

One may read the IC50 as the concentration that inhibits the measured activity by half. Low readings indicate greater potency, high ones weaker potency. By solubility is commonly meant the dissolved amount per volume that the medium holds. Low values mean a poorly soluble substance, high ones a readily soluble substance.

The test system of one series is NIH3T3. Put plainly: Cytotoxicity against mouse NIH/3T3 cells after 96 hrs by SRB assay. The format is cell-based. The settings on record: NIH3T3, 96 h.
Series [1] concerns A2780. The series is described as follows: Induction of apoptosis in human A2780 cells assessed as caspase 3 activity at 1 uM after 12 hrs relative to control. The series is classed as functional.
In series [2] the test system is A2780. Put plainly: Induction of apoptosis in human A2780 cells assessed as cholesterol crystal formation at 1 uM by acridine orange/propidium iodide staining-based fluorescence microscopy. To be noted: TDE = time-dependent effect. The format is functional, cell-based.
In series [3] the test system is A2780. Put plainly: Induction of apoptosis in human A2780 cells assessed as caspase 9 activity at 1 uM after 12 hrs relative to control. The series is classed as functional.
For series [4], the system named is A2780. The series is described as follows: Induction of apoptosis in human A2780 cells assessed as caspase 3 activity at 1 uM after 24 hrs relative to control. The format is functional.
Series [5] relates to A2780. Put plainly: Induction of apoptosis in human A2780 cells assessed as caspase 9 activity at 1 uM after 24 hrs relative to control. The format is functional.
Series [6] concerns A2780. Put plainly: Induction of apoptosis in human A2780 cells assessed as caspase 3 activity at 1 uM after 6 hrs relative to control. The series is classed as functional.
The subject of series [7] is A2780. The series is described as follows: Induction of apoptosis in human A2780 cells assessed as cholesterol crystal formation after 24 hrs by acridine orange/propidium iodide staining-based fluorescence microscopy. The format is functional, cell-based.
Series [8] deals with A2780. Put plainly: Induction of apoptosis in human A2780 cells assessed as cell shrinkage at 1 uM after 24 hrs by acridine orange/propidium iodide staining-based fluorescence microscopy. The format is functional.
Series [9] deals with A2780. Put plainly: Induction of apoptosis in human A2780 cells assessed as caspase 8 activity at 1 uM after 12 hrs relative to control. The series is classed as functional.
Series [10] has as its system A2780. Put plainly: Induction of apoptosis in human A2780 cells assessed as chromatin condensation at 1 uM after 24 hrs by acridine orange/propidium iodide staining-based fluorescence microscopy. The format is functional, cell-based.
In series [11] the test system is A2780. Put plainly: Induction of apoptosis in human A2780 cells assessed as caspase 9 activity at 1 uM after 6 hrs relative to control. The series is classed as functional.
In series [12] the test system is A2780. The series is described as follows: Induction of apoptosis in human A2780 cells assessed as caspase 8 activity at 1 uM after 24 hrs relative to control. The series is classed as functional.
In series [13] the test system is A2780. The series is described as follows: Induction of apoptosis in human A2780 cells assessed as caspase 8 activity at 1 uM after 6 hrs relative to control. The format is functional.
In series [14] the test system is A2780. Put plainly: Induction of apoptosis in human A2780 cells assessed as caspase 8 activity at 60 uM after 24 hrs relative to control. The format is functional.
The test system of series [15] is A2780. Put plainly: Induction of apoptosis in human A2780 cells at 2 to 6 times IC50 after 6 to 24 hrs by acridine orange/propidium iodide staining-based fluorescence microscopy. The format is functional, cell-based.
Series [16] concerns A2780. Put plainly: Induction of apoptosis in human A2780 cells assessed as caspase 8 activity at 24 uM after 12 hrs relative to control. The series is classed as functional.
Series [17] has as its system A2780. The series is described as follows: Induction of apoptosis in human A2780 cells assessed as caspase 9 activity at 60 uM after 6 hrs relative to control. The series is classed as functional.
The nature of series [18]: Solubility of the compound in buffer at 10 uM after 90 mins by HPLC analysis. The format is physicochemical.
Series [19] concerns A2780. The series is described as follows: Induction of apoptosis in human A2780 cells assessed as caspase 8 activity at 24 uM after 6 hrs relative to control. The series is classed as functional.
Series [20] relates to A2780. The series is described as follows: Cell cycle arrest in human A2780 cells assessed as accumulation at G1/G0 phase at 12 uM after 12 hrs by annexin V/propidium iodide staining-based FACS analysis. The format is functional. Background: In flow cytometry, cells or beads pass a laser one at a time.
The test system of series [21] is A2780. The series is described as follows: Cell cycle arrest in human A2780 cells assessed as early detachment of cells at 24 to 60 uM after 24 hrs by annexin V/propidium iodide staining-based FACS analysis. The series is classed as functional.
The test system of the next series is A549. The series is described as follows: Cytotoxicity against human A549 cells after 96 hrs by SRB assay. The series is classed as functional, cell-based. The settings on record: A549, 96 h.
Series [22] concerns A2780. The series is described as follows: Induction of apoptosis in human A2780 cells assessed as secondary necrotic cells at 24 to 60 uM after 6 to 24 hrs by annexin V/propidium iodide staining-based FACS analysis. The format is functional, cell-based.
Series [23] concerns A2780. Put plainly: Induction of apoptosis in human A2780 cells assessed as caspase 8 activity at 60 uM after 12 hrs relative to control. The format is functional.
Series [24] has as its system A2780. Put plainly: Induction of apoptosis in human A2780 cells assessed as caspase 3 activity at 60 uM after 24 hrs relative to control. The format is functional.
For series [25], the system named is A2780. Put plainly: Cell cycle arrest in human A2780 cells assessed as accumulation at S phase at 24 uM after 6 hrs by annexin V/propidium iodide staining-based FACS analysis. The format is functional.
For series [26], the system named is A2780. The series is described as follows: Induction of apoptosis in human A2780 cells assessed as caspase 9 activity at 24 uM after 12 hrs relative to control. The format is functional.
The subject of series [27] is A2780. The series is described as follows: Induction of apoptosis in human A2780 cells assessed as phosphatidylserine externalization at 60 uM after 6 hrs by annexin V/propidium iodide staining-based FACS analysis. The format is functional.
For the next series, the system named is HT-29. Put plainly: Cytotoxicity against human HT-29 cells after 96 hrs by SRB assay. The series is classed as functional, cell-based. The settings on record: HT-29, 96 h.
The test system of series [28] is A2780. Put plainly: Induction of apoptosis in human A2780 cells assessed as caspase 9 activity at 24 uM after 6 hrs relative to control. The series is classed as functional.
A further series has as its system MCF7. Put plainly: Cytotoxicity against human MCF7 cells after 96 hrs by SRB assay. The format is functional, cell-based. The settings on record: MCF7, 96 h. On the technique in general: In SRB staining, fixed cells bind dye roughly in proportion to their protein.
Series [29] can be described thus: Cytotoxicity against human 518A2 cells after 96 hrs by SRB assay. The format is functional, cell-based. To be noted: 518A2, 96 h.
The subject of series [30] is A2780. Put plainly: Induction of apoptosis in human A2780 cells assessed as caspase 3 activity at 24 uM after 6 hrs relative to control. The series is classed as functional.
For series [31], the system named is A2780. Put plainly: Induction of apoptosis in human A2780 cells assessed as caspase 8 activity at 24 uM after 24 hrs relative to control. The format is functional.
Series [32] concerns A2780. Put plainly: Induction of apoptosis in human A2780 cells assessed as caspase 9 activity at 60 uM after 12 hrs relative to control. The format is functional.
Series [33] deals with A2780. Put plainly: Induction of apoptosis in human A2780 cells assessed as caspase 9 activity at 24 uM after 24 hrs relative to control. The series is classed as functional.
For series [34], the system named is A2780. The series is described as follows: Induction of apoptosis in human A2780 cells assessed as caspase 3 activity at 60 uM after 6 hrs relative to control. The format is functional.
Series [35] deals with A2780. The series is described as follows: Cytotoxicity against human A2780 cells after 96 hrs by SRB assay. The format is functional, cell-based. The settings on record: A2780, 96 h.
Series [36] concerns A2780. Put plainly: Induction of apoptosis in human A2780 cells assessed as caspase 3 activity at 24 uM after 24 hrs relative to control. The series is classed as functional.
Series [37] deals with A2780. Put plainly: Induction of apoptosis in human A2780 cells assessed as caspase 3 activity at 24 uM after 12 hrs relative to control. The series is classed as functional.
The test system of series [38] is A2780. The series is described as follows: Induction of apoptosis in human A2780 cells assessed as caspase 3 activity at 60 uM after 12 hrs relative to control. The format is functional.
For the next series, the system named is 8505C. The series is described as follows: Cytotoxicity against human 8505C cells after 96 hrs by SRB assay. The series is classed as functional, cell-based.
Series [39] deals with A2780. The series is described as follows: Induction of apoptosis in human A2780 cells assessed as cholesterol crystal formation at 24 to 60 uM by acridine orange/propidium iodide staining-based fluorescence microscopy. The series is classed as functional, cell-based. The settings on record: TDE = time-dependent effect.
Series [40] has as its system A2780. The series is described as follows: Induction of apoptosis in human A2780 cells assessed as chromatin condensation at 24 to 60 uM after 24 hrs by acridine orange/propidium iodide staining-based fluorescence microscopy. The series is classed as functional, cell-based.
The subject of series [41] is A2780. The series is described as follows: Induction of apoptosis in human A2780 cells assessed as DNA fragmentation at 0.024 to 0.060 mM after 6 to 24 hrs by agarose gel electrophoresis. The format is functional, cell-based.
Series [42] deals with A2780. Put plainly: Induction of apoptosis in human A2780 cells assessed as caspase 9 activity at 60 uM after 24 hrs relative to control. The format is functional.
The subject of series [43] is A2780. Put plainly: Induction of apoptosis in human A2780 cells assessed as cell shrinkage at 24 to 60 uM after 24 hrs by acridine orange/propidium iodide staining-based fluorescence microscopy. The series is classed as functional.
Series [44] concerns A2780. The series is described as follows: Induction of apoptosis in human A2780 cells assessed as caspase 8 activity at 60 uM after 6 hrs relative to control. The format is functional.

Regarding `CC1(C)CC[C@]2(C(=O)O)CC[C@]3(C)C(=CC[C@@H]4[C@@]5(C)C[C@@H](O)[C@H](O)C(C)(C)[C@@H]5CC[C@]43C)[C@@H]2C1` [MASLINIC ACID], in the series with NIH3T3, the IC50 turned out to be 21.1 µM.

With `CN[C@@H]1C[C@H]2O[C@@](C)([C@@H]1OC)n1c3ccccc3c3c4c(c5c6ccccc6n2c5c31)C(=O)NC4` [STAUROSPORINE], the Activity was 52% with A2780 [1]; “tde” with A2780 [2]; 3% in the series with A2780 [3]; 57% in the series with A2780 [4]; 33% with A2780 [5]; 68% with A2780 [6]. Further, the Activity entry is “Dose-dependent effect” in the series with A2780 [7]; 52% with A2780 [9]; 38% in the series with A2780 [11]; 79% with A2780 [12]; 51% with A2780 [13]. In addition, the result in the series on A2780 [8] and in the series on A2780 [10] was Active.

For the molecule `CC1(C)CC[C@]2(C(=O)OCCCOc3ccccc3)CC[C@]3(C)C(=CC[C@@H]4[C@@]5(C)C[C@@H](O)[C@H](O)C(C)(C)[C@@H]5CC[C@]43C)[C@@H]2C1`, the Activity was determined as 39% in the series with A2780 [14]; 1% in the series on A2780 [16]; 3% in the series on A2780 [17]; 2% in the series on A2780 [19]; 44% in the series with A2780 [23]; 31% with A2780 [24]. The Activity in the series on A2780 [26] is -2%; in the series on A2780 [27] it was 80%; in the series on A2780 [7], “Dose-dependent effect”; with A2780 [28], 0%; with A2780 [30], 2%; in the series on A2780 [31], 27%. Further, the Activity was found to be 2% in the series with A2780 [32]; 6% with A2780 [33]; 29% in the series with A2780 [34]; 25% in the series with A2780 [36]; 1% in the series on A2780 [37]; 37% with A2780 [38]. Besides, the Activity entry in the series on A2780 [39] is “tde”; in the series on A2780 [42], 21%; in the series on A2780 [44] it was 25%. The outcome with A2780 [15], with A2780 [20], in the series with A2780 [21], with A2780 [22], in the series on A2780 [25] and in the series on A2780 [40] was Active. For the same molecule, the outcome with A2780 [41] and in the series on A2780 [43] was Active. Moreover, in series [18], the concentration in solution (solubility at 1.5 h, 10 µM) was 110 µM (≈ 66.5 µg/mL). Also, the half-inhibitory concentration (IC50) was found to be 13.7 µM in the series on A549; 12.5 µM with HT-29; 13.6 µM in the series with MCF7; 12.6 µM in series [29]; 12.7 µM with NIH3T3; 10.6 µM with A2780 [35]. Moreover, in the series with 8505C, the concentration for half-maximal inhibition (IC50) was determined as 13.3 µM.
